Test results taken from patent US9700058B2, “Dispersion and detachment of cell aggregates” (priority 2011, dated 2017).

What was measured:
Type in all cases: cell-based
[1] = tested on: Pseudomonas aeruginosa (ATCC 27853); assay: Detachment of pre-formed biofilm from a well (Examples 1-7); details: 24-hour peptide incubation, different concentrations, crystal violet OD 595 nm
Description: A biofilm was created by incubating Pseudomonas aeruginosa (ATCC 27853) overnight in wells at 37° C., allowing the microorganism to attach to the well surface. Eqt2Z-cyc peptide [Custom Peptide Synthesis; Peptron, Korea] at different concentrations was subsequently added to the wells and allowed to incubate overnight. The P.a. control was Pseudomonas aeruginosa alone.
(§1) A biofilm was created by culturing Pseudomonas aeruginosa (ATCC 27853) for 2 hours in a well at 37° C. Eqt2Z-cyc peptide at different concentrations was subsequently added to the well and allowed to incubate overnight. The Abac10-cyc peptide served as a negative control. The P.a. control was Pseudomonas aeruginosa alone.
as §1, with “for 24 hours.” for “overnight.”, “alone. […] Staining was performed with crystal violet at OD 595 nm.” for “alone.”
A biofilm was created by culturing Pseudomonas aeruginosa (ATCC 27853) for 2 hours in a well at 37° C. grZ14s-nvCyc peptide [Custom Peptide Synthesis; Peptron, Korea] at different concentrations was subsequently added to the well and allowed to incubate for 24 hours. The Abac10-cyc peptide served as a negative control. The P.a. control was Pseudomonas aeruginosa alone. […] Staining was performed with crystal violet at OD 595 nm.
(§2) A biofilm was created by culturing Pseudomonas aeruginosa (ATCC 27853) for 24 hours in a well at 37° C. Eqt2Z-cyc peptide at different concentrations was subsequently added to the well and allowed to incubate for 24 hours. The Abac10-cyc peptide served as a negative control. The P.a. control was Pseudomonas aeruginosa alone. […] Staining was performed with crystal violet at OD 595 nm.
as §2, with “grZ14s-nvCyc” for “Eqt2Z-cyc”
A biofilm was created by culturing Pseudomonas aeruginosa (ATCC 27853) for 24 hours in a well at 37° C. PhyscoZ-Cyc peptide [Custom Peptide Synthesis; Peptron, Korea] at different concentrations was subsequently added to the well and allowed to incubate for 24 hours. The P.a. control was Pseudomonas aeruginosa alone. […] Staining was performed with crystal violet at OD 595 nm.

Pseudomonas aeruginosa [2] = assay: Enhancement of antibiotic activity on 24-h biofilm, live bacteria by plating
Description: (§3) The ability of grZ14s-nvCyc to enhance the activity of Imipenem or Ampicillin was performed by first incubating the wells in a 96-well plate with Pseudomonas aeruginosa for 24 hours at 37° C. and 50 rpm shaking. The plate was washed 2 times with phosphate buffer solution. The wells were then filled with either the antibiotic alone or the antibiotic with grZ14s-nvCyc (100 ng/ml). The wells were then incubated for 48 hours (24 hours for Ampicillin) at 37° C. and 50 rpm shaking. 0.3% triton X-100 and 0.45% EDTA were then added to the wells, bringing the wells to a final concentration of 0.075% triton X-100 and 0.1125% EDTA. The plates were then sonicated in a bath-sonicator for 12 minutes. The wells were then serially diluted in PBS. The solutions were then seeded on a blood plate agar and incubated at 37° C. for 24 hours.

Staphylococcus aureus = assay: Enhancement of Vancomycin activity on 24-h biofilm, live bacteria by plating; details: peptide 100 ng/ml with Vancomycin vs Vancomycin alone
Description: as §3, with “Vancomycin” for “Imipenem or Ampicillin”, “Staphylococcus aureus” for “Pseudomonas aeruginosa”, “24” for “48”, “hours” for “hours (24 hours for Ampicillin)”

Candida albicans = assay: Enhancement of antifungal activity, BacTiter-Glo viability; details: 24 hours
Description: (§4) The ability of grZ14s-nvCyc to enhance the activity of Amphotericin was performed by first incubating the wells in a 96-well plate with Candida albicans for 24 hours at 37° C. and 50 rpm shaking. The plate was washed 2 times with phosphate buffer solution. The wells were then filled with either the antifungal alone or the antifungal with grZ14s-nvCyc (100 ng/ml). The wells were then incubated for 24 hours at 37° C. and 50 rpm shaking. The plates were again washed 2 times with PBS. BacTiter-Glo Microbial Cell Viability Assay (Promega, USA) was used following the manufacturer protocol and luminescence read.
as §4, with “Fluconazole” for “Amphotericin”

Pseudomonas aeruginosa [3] = assay: Enhancement of Kanamycin activity, BacTiter-Glo viability; details: peptide 100 ng/ml with Kanamycin vs Kanamycin alone, 24 hours
Description: as §4, with “Kanamycin” for “Amphotericin”, “Pseudomonas aeruginosa” for “Candida albicans”, “Kanamycin” for “the antifungal”

CSVHSFDYDWYNVC [grZ14s-nvCyc]
microorganism detachment ([1]; 2-hour biofilm): far greater microorganism detachment than in the P.a. control or negative control
microorganism detachment ([1]; 24-hour biofilm): far greater microorganism detachment than in the P.a. control or negative control
number of live bacteria (Pseudomonas aeruginosa [2]; peptide 100 ng/ml with Ampicillin vs Ampicillin alone, 24 hours): much lower
number of live bacteria (Pseudomonas aeruginosa [2]; peptide 100 ng/ml with Imipenem vs Imipenem alone, 48 hours): much lower
number of live bacteria (Staphylococcus aureus): much lower
number of live fungus (Candida albicans; peptide 100 ng/ml with Amphotericin vs Amphotericin alone): much lower
number of live fungus (Candida albicans; peptide 100 ng/ml with Fluconazole vs Fluconazole alone): much lower
number of live bacteria (Pseudomonas aeruginosa [3]): much lower
